Data on four compounds can be found in patent US20110166059A1, “MEANS AND METHODS FOR EVALUATING A THERAPY WITH A P38 MAP KINASE INHIBITOR” (priority 2008, published 2011).

The subject of assay [1] is LPS-stimulated human monocytes. In words: Microarray gene expression profile of long-term LPS-stimulated monocytes in the presence of kinase inhibitors. In kind it is cell-based. The note with it: for late-stage LPS-induced gene expression change (principal component analysis, FIG. 4): long-term (16 hours) LPS-treated monocytes, 100 ng/ml LPS, inhibitor 10 μM. The procedure:
(§1) Monocytes were isolated from pooled human buffy coats by Ficoll-Paque and subsequent Percoll (Pharmacia, Freiburg, Germany) density-gradient centrifugation to greater than 90% purity. Monocytes were cultured (1×10^6 cells/nil) in hydrophobic Teflon bags (Hereus, Hanau, Germany) in McCoy's 5a medium (Biochrom, Berlin, Germany) supplemented with 15% FCS, 2 mM L-glutamine, 200 IU penicillin, 100 μg/ml streptomycin and 1× NEAA (all from Biochrom, Berlin, Germany) and allowed to rest for 18 h prior to stimulation. Monocytes were exposed for 4 and 16 hours to 100 ng/ml LPS in the absence or presence of 10 μM PD98059, 10 μM GF109203X or 10 μm SB202190, respectively, or were left untreated
Total cellular RNA was isolated from 3 independent experiments with untreated and LPS-stimulated human monocytes in the absence or presence of pharmacological kinase inhibitors (RNeasy kit; Qiagen, Hilden, Germany). RNA preparation, samples preparation and hybridization to Affymetrix Human Genome 133 A Gene Chip arrays were performed according to the manufacturer's instructions (Affymetrix, Santa Clara, Calif.).
Ten micrograms of fragmented cRNA was, together with control cRNAs and grid alignment oligonucleotides, hybridized for 16 hours under constant rotation at 45° C. to Affymetrix Human Genome 133 A Gene Chip arrays (Affymetrix). Arrays were washed and stained using the Gene Chip Fluidics Station 400 (Affymetrix). Fluorescent signals were detected by the HP G2500A Gene Array Scanner (Affymetrix).
Data were processed by MicroArray Suite (MAS) Software 5.0 (Affymetrix). Signals were scaled to a target intensity of 100 and log transformed. The algorithm applied in the MAS 5.0 software assigned individual average background values to each cell intensity and subtracted it from single raw cell intensities Single raw values were calculated for each probe set (i.e., transcript from the median of discrimination values and their significance was assessed by using a one-sided Wilcoxon rank test).
While the MAS 5.0 software only allows comparison of 2 individuals data sets, we further studied the Affymetrix intensity files with the Expressionist Suite software package (GeneData, Basel, Switzerland) for a more sophisticated statistical analysis. […] The software package includes the Expressionist Refiner v3.0.4 which permits a global chip quality control with detection and masking of outliers and array defects, fluorescence gradient correction, and variance regularization. For final identification of significant gene expression difference we used Expressionist Analyst v4.0.5. First, data were normalized to a logarithmic mean of 180 in all experiments. […] Finally, n-fold changes were determined and screened for their significance by applying a t test. […]

The subject of another assay is TNF, IL-6 or IL-10. The conditions noted are these: human volunteers, control group increased after about 2-4 hours; oral inhibitor; cited from earlier work.
For assay [2], the system named is promoter regions of LPS-regulated proinflammatory genes (VCAM, IL8, DUSP1, TNF, MYC) in monocytes. Nature of the assay: Chromatin immunoprecipitation (ChIP) of histone acetylation and methylation at promoters of pro-inflammatory genes in LPS-treated monocytes. The assay is classed as cell-based, human. The note with it: long-term (16 h) LPS treatment, ongoing inhibition of p38 MAP kinase; FIGS. 8 and 10. The procedure:
as §1
After stimulation, monocytes were formalin-fixed, washed, lysed, and sonicated. DNA-protein complexes were immunoprecipitated with polyclonal histone-antibodies against H3K4 (abcam, Cambridge, UK), H3K79 and AcH4 (both upstate, Lake Placid, N.Y.). […] PCR products were processed by using the QuantiTect SYBR Green PCR kit to perform quantitative RT-PCRs employing the ABI PRISM 7900 (Applied Biosystems).

As to `COc1cccc(-c2cc(=O)c3ccccc3o2)c1N` [PD98059], the “late-stage LPS-induced gene expression change (principal component analysis, FIG. 4)” value in assay [1] was “did not significantly change gene expression”.

As for `Cc1ccc(-n2nc(C(C)(C)C)cc2NC(=O)Nc2ccc(OCCN3CCOCC3)c3ccccc23)cc1` [BIRB 796 BS, 1-(5-tert-butyl-2-p-tolyl-2H-pyrazol-3-yl)-3-[4-(2-morpholin-4-yl-ethoxy)-naphthalen-1-yl]-urea], the “increase in cytokines such as TNF, IL-6 or IL-10 after LPS administration” value with TNF, IL-6 or IL-10 is on record as “did not show a significant increase in these cytokines”.

Regarding `Oc1ccc(-c2nc(-c3ccncc3)c(-c3ccc(F)cc3)[nH]2)cc1` [SB202190, 4-(4-fluorophenyl)-2-2(4-hydroxyphenyl)-5-(4-pyridyl)-imidazole], the “down-regulation of inflammatory response genes in the late stage of LPS-signaling” value in assay [1] (human monocytes, 16 hours 100 ng/ml LPS, 10 μm SB202190) is “reversed the down-regulation of inflammatory response genes”. The “late-stage LPS-induced gene expression change (principal component analysis, FIG. 4)” value in assay [1] was “changed significantly”. In assay [2], the “acetylation of H4 (AcH4) at pro-inflammatory genes” value is recorded as “sustained high acetylation of H4 (AcH4)”.

`CN(C)CCCn1cc(C2=C(c3c[nH]c4ccccc34)C(=O)NC2=O)c2ccccc21` [GF109203X]: the “late-stage LPS-induced gene expression change (principal component analysis, FIG. 4)” value in assay [1] is “did not significantly change gene expression”.
